# Data from patent US20150164762A1, “USE OF ETHANOLAMINE PHOSPHATE” (priority 2012, published 2015).
# Test system: BEAS-2B
# Assay: Comprehensive gene expression analysis with Whole Human Genome DNA microarray after EP treatment
# Type: cell-based
# Description: Cells of the established normal human airway epithelial cell line BEAS-2B were used in the experiment. These cells were expansively cultured in 10% FBS RPMI-1640, and seeded at a density of 1×10^5/cm^2 on a 24-well plate. After 24 hours 0.1% FBS RPMI-1640 was substituted, and EP was administered to a final concentration of 0 or 1 mM (n=4). After 24 hours, the cells were used as the DNA microarray samples. RNA was extracted using a QIAGEN RNeasy Mini Kit. The DNA microarray test was performed using a Whole Human Genome DNA microarray 4×44K (Agilent), and the necessary labeling reagents and the like for the DNA microarray test were all from Agilent. The DNA microarray test data were analyzed statistically with GeneSpring (Agilent) dedicated analysis software, and gene function analysis (Gene Ontology (GO) analysis) was performed based on differential expression. The purpose of the GO analysis is to determine stochastically the degree to which gene sets with statistically significant differential expression correspond to known functional classification gene sets. […] The p-value is calculated according to the following formula.
# [1] = probe A_24_P215804, 1 mM EP, 24 h
# [2] = probe A_24_P218265, 1 mM EP, 24 h
# [3] = probe A_24_P226782, 1 mM EP, 24 h
# [4] = probe A_24_P231104, 1 mM EP, 24 h
# [5] = probe A_24_P261169, 1 mM EP, 24 h
# [6] = probe A_24_P273157, 1 mM EP, 24 h
# [7] = probe A_24_P295543, 1 mM EP, 24 h
# [8] = probe A_24_P302833, 1 mM EP, 24 h
# [9] = probe A_24_P307580, NM_001098523, EP vs control
# [10] = probe A_24_P313354, 1 mM EP, 24 h
# [11] = probe A_24_P313504, 1 mM EP, 24 h
# [12] = probe A_24_P317708, NM_138969, EP vs control
# [13] = probe A_24_P319113, 1 mM EP, 24 h
# [14] = probe A_24_P319983, 1 mM EP, 24 h
# [15] = probe A_24_P388659, 1 mM EP, 24 h
# [16] = probe A_24_P389409, NM_006129, EP vs control
# [17] = probe A_24_P389457, 1 mM EP, 24 h
# [18] = probe A_24_P413470, 1 mM EP, 24 h
# [19] = probe A_24_P722216, NM_018706, EP vs control
# [20] = probe A_24_P839629, 1 mM EP, 24 h
# [21] = probe A_24_P876522, NM_001008397, EP vs control
# [22] = probe A_24_P914519, S67289, EP vs control
# [23] = probe A_24_P928052, 1 mM EP, 24 h
# [24] = probe A_24_P934477, AJ000096, EP vs control
# [25] = probe A_24_P935986, 1 mM EP, 24 h
# [26] = probe A_24_P937256, 1 mM EP, 24 h
# [27] = probe A_24_P937317, NM_001014336, EP vs control
# [28] = probe A_24_P3305312, 1 mM EP, 24 h
# [29] = probe A_24_P9284523, 1 mM EP, 24 h
# [30] = probe A_32_P45009, NM_005896, EP vs control
# [31] = probe A_32_P75094, 1 mM EP, 24 h
# [32] = probe A_32_P89691, NM_003104, EP vs control
# [33] = probe A_32_P94798, 1 mM EP, 24 h
# [34] = probe A_32_P171043, 1 mM EP, 24 h
# [35] = probe A_32_P230808, 1 mM EP, 24 h
smiles,measurement,setting,value
"NCCOP(=O)(O)O [EP, Ethanolamine phosphate]",CKLF expression R*: Ratio to control,[1],1.551 times
same,CKLF expression log2 [ratio],[1],0.633
same,TNFRSF10B expression R*: Ratio to control,[2],0.475 times
same,TNFRSF10B expression log2 [ratio],[2],−1.073
same,SOX7 expression R: Ratio to control,[3],0.607 times
same,SOX7 expression log2 [ratio],[3],−0.720
same,LEPR expression R*: Ratio to control,[4],1.659 times
same,LEPR expression log2 [ratio],[4],0.730
same,SEMA4D expression R: Ratio to control,[5],0.558 times
same,SEMA4D expression log2 [ratio],[5],−0.842
same,OBSCN expression R: Ratio to control,[6],0.654 times
same,OBSCN expression log2 [ratio],[6],−0.613
same,BLOC1S2 expression R*: Ratio to control,[7],0.384 times
same,BLOC1S2 expression log2 [ratio],[7],−1.381
same,APPL1 expression R*: Ratio to control,[8],1.723 times
same,APPL1 expression log2 [ratio],[8],0.785
same,"HTATIP2 gene expression, R* ratio to control",[9],1.821 times
same,"HTATIP2 gene expression, log2 [ratio]",[9],0.865
same,NR2F2 expression R*: Ratio to control,[10],1.746 times
same,NR2F2 expression log2 [ratio],[10],0.804
same,PLK1 expression R*: Ratio to control,[11],1.939 times
same,PLK1 expression log2 [ratio],[11],0.955
same,"SDR16C5 gene expression, R* ratio to control",[12],2.349 times
same,"SDR16C5 gene expression, log2 [ratio]",[12],1.232
same,P2RX7 expression R: Ratio to control,[13],0.586 times
same,P2RX7 expression log2 [ratio],[13],−0.772
same,BCL10 expression R*: Ratio to control,[14],0.571 times
same,BCL10 expression log2 [ratio],[14],−0.310
same,ARHGAP24 expression R*: Ratio to control,[15],1.745 times
same,ARHGAP24 expression log2 [ratio],[15],0.803
same,"BMP1 gene expression, R* ratio to control",[16],0.650 times
same,"BMP1 gene expression, log2 [ratio]",[16],−0.622
same,CDKN1A expression R*: Ratio to control,[17],0.294 times
same,CDKN1A expression log2 [ratio],[17],−1.768
same,TP73 expression R*: Ratio to control,[18],0.482 times
same,TP73 expression log2 [ratio],[18],−1.054
same,"DHTKD1 gene expression, R* ratio to control",[19],1.429 times
same,"DHTKD1 gene expression, log2 [ratio]",[19],0.515
same,ZMAT3 expression R*: Ratio to control,[20],0.654 times
same,ZMAT3 expression log2 [ratio],[20],−0.612
same,"GPX8 gene expression, R* ratio to control",[21],1.602 times
same,"GPX8 gene expression, log2 [ratio]",[21],0.680
same,"CYBB gene expression, R* ratio to control",[22],1.958 times
same,"CYBB gene expression, log2 [ratio]",[22],0.968
same,NRP1 expression R*: Ratio to control,[23],1.990 times
same,NRP1 expression log2 [ratio],[23],0.993
same,"CBR3 gene expression, R* ratio to control",[24],2.429 times
same,"CBR3 gene expression, log2 [ratio]",[24],1.281
same,BCAT1 expression R*: Ratio to control,[25],1.721 times
same,BCAT1 expression log2 [ratio],[25],0.783
same,RELA expression R*: Ratio to control,[26],1.611 times
same,RELA expression log2 [ratio],[26],0.688
same,"IL31 gene expression, R* ratio to control",[27],0.296 times
same,"IL31 gene expression, log2 [ratio]",[27],−1.758
same,BBC3 expression R*: Ratio to control,[28],0.366 times
same,BBC3 expression log2 [ratio],[28],−1.452
same,MAP3K10 expression R*: Ratio to control,[29],0.570 times
same,MAP3K10 expression log2 [ratio],[29],−0.810
same,"IDH1 gene expression, R* ratio to control",[30],1.486 times
same,"IDH1 gene expression, log2 [ratio]",[30],0.571
same,A1FM2 expression R*: Ratio to control,[31],0.399 times
same,A1FM2 expression log2 [ratio],[31],−1.327
same,"SORD gene expression, R* ratio to control",[32],1.506 times
same,"SORD gene expression, log2 [ratio]",[32],0.590
same,ANXA2 expression R*: Ratio to control,[33],1.614 times
same,ANXA2 expression log2 [ratio],[33],0.691
same,CCBE1 expression R*: Ratio to control,[34],1.890 times
same,CCBE1 expression log2 [ratio],[34],0.918
same,KNG1 expression R*: Ratio to control,[35],0.358 times
same,KNG1 expression log2 [ratio],[35],−1.484
same,FAS expression,"probe A—23_P63896, 1 mM EP, 24 h",0.36 fold
same,catalase (CAT) expression,"probe A—23_P105138, 1 mM EP, 24 h",increased expression
same,NADPH:quinone reductase-1 (NQ01) expression,"probe A—23_P206661, 1 mM EP, 24 h",increased expression
same,thioredoxin (TXN) expression increase,"probe A—24_P175519, 1 mM EP, 24 h",1.4 times
